Data published in patent publication US12043599B2, “Herbicidal compounds” (SYNGENTA PARTICIPATIONS AG, priority 2018, dated 2024).

Experiments:
Format in all cases: in vivo
Conditions in all cases: 250 g/h, evaluated after 13 days
[1] = system: Avena fatua (AVEFA); assay: Pre-emergence herbicidal glasshouse test, percentage damage
Procedure: (§1) Seeds of a variety of test species are sown in standard soil in pots (Lolium perenne (LOLPE), Setaria faberi (SETFA), Alopecurus myosuroides (ALOMY), Echinochloa crus-galli (ECHCG), Avena fatua (AVEFA)). After cultivation for one day (pre-emergence) or after 8 days cultivation (post-emergence) under controlled conditions in a glasshouse (at 24/16° C., day/night; 14 hours light; 65% humidity), the plants are sprayed with an aqueous spray solution derived from the formulation of the technical active ingredient in acetone/water (50:50) solution containing 0.5% Tween 20 (polyoxyethelyene sorbitan monolaurate, CAS RN 9005-64-5). Compounds are applied at […]. The test plants are then grown in a glasshouse under controlled conditions in a glasshouse (at 24/16° C., day/night; 14 hours light; 65% humidity) and watered twice daily. After 13 days for pre and post-emergence, the test is evaluated for the percentage damage caused to the plant. The biological activities are shown in the following table on a five point scale (5=80-100%; 4=60-79%; 3=40-59%; 2=20-39%; 1=0-19%).

[2] = system: Echinochloa crus-galli (ECHCG); assay: as above
Procedure: as §1

[3] = system: Lolium perenne (LOLPE); assay: as above
Procedure: as §1

[4] = system: Setaria faberi (SETFA); assay: as above
Procedure: as §1

[5] = system: Setaria faberi (SETFA); assay: Post-emergence herbicidal glasshouse test, percentage damage
Procedure: as §1
Using procedures outlines above, wheat and barley crop plants and a weed species (SETFA) are treated post-emergence with compound A11 of the present invention or comparator compound C1 (Compound A-38 from WO2014/096289) at the application rates indicated. The compounds were also applied to wheat in conjunction with the safener compound cloquintocet-mexyl (CQC) at 50 g/ha.

[6] = system: Avena fatua (AVEFA); assay: as above
Procedure: as §1

[7] = system: Echinochloa crus-galli (ECHCG); assay: as above
Procedure: as §1

[8] = system: Lolium perenne (LOLPE); assay: as above
Procedure: as §1

SMILES | AVEFA PRE percentage damage (five point scale) [1] | ECHCG PRE percentage damage (five point scale) [2] | LOLPE PRE percentage damage (five point scale) [3] | SETFA PRE percentage damage (five point scale) [4] | SETFA POST percentage damage (five point scale) [5] | AVEFA POST percentage damage (five point scale) [6] | ECHCG POST percentage damage (five point scale) [7] | LOLPE POST percentage damage (five point scale) [8]
CC#Cc1cc(C)c(C2C(=O)CC3(CCN(C(=O)c4cnc(C#N)s4)CC3)CC2=O)c(C)c1 [Compound A106] | 2 (2=20-39%) | 4 (4=60-79%) | 3 (3=40-59%) | 4 (4=60-79%) | 5 (5=80-100%) | 5 (5=80-100%) | 3 (3=40-59%) | 3 (3=40-59%)
CC#Cc1cc(C)c(C2C(=O)CC3(CCN(S(=O)(=O)c4cnccn4)CC3)CC2=O)c(C)c1 [Compound A107] | 4 (4=60-79%) | 3 (3=40-59%) | 5 (5=80-100%) | 4 (4=60-79%) | 5 (5=80-100%) | 5 (5=80-100%) | 5 (5=80-100%) | 5 (5=80-100%)
CC#Cc1cc(C)c(C2C(=O)CC3(CCN(C(=O)NC(=O)CC)CC3)CC2=O)c(C)c1 [Compound A108] | 5 (5=80-100%) | 5 (5=80-100%) | 5 (5=80-100%) | 5 (5=80-100%) | 5 (5=80-100%) | 5 (5=80-100%) | 5 (5=80-100%) | 5 (5=80-100%)
CC#Cc1cc(C)c(C2C(=O)CC3(CCN(C(=O)CC4CCOCC4)CC3)CC2=O)c(C)c1 [Compound A109] | 5 (5=80-100%) | 5 (5=80-100%) | 5 (5=80-100%) | 5 (5=80-100%) | 5 (5=80-100%) | 5 (5=80-100%) | 5 (5=80-100%) | 5 (5=80-100%)
CC#Cc1cc(C)c(C2C(=O)CC3(CCN(C(=O)c4cccc(OC)n4)CC3)CC2=O)c(C)c1 [Compound A110] | 5 (5=80-100%) | 5 (5=80-100%) | 5 (5=80-100%) | 5 (5=80-100%) | 5 (5=80-100%) | 5 (5=80-100%) | 5 (5=80-100%) | 5 (5=80-100%)
CC#Cc1cc(C)c(C2C(=O)CC3(CCN(C(=O)c4nccn4C)CC3)CC2=O)c(C)c1 [Compound A112] | 5 (5=80-100%) | 5 (5=80-100%) | 5 (5=80-100%) | 5 (5=80-100%) | 5 (5=80-100%) | 5 (5=80-100%) | 5 (5=80-100%) | 5 (5=80-100%)
CC#Cc1cc(C)c(C2C(=O)CC3(CCN(C(=O)c4ncccc4C#N)CC3)CC2=O)c(C)c1 [Compound A114] | 4 (4=60-79%) | 5 (5=80-100%) | 5 (5=80-100%) | 5 (5=80-100%) | 5 (5=80-100%) | 5 (5=80-100%) | 5 (5=80-100%) | 5 (5=80-100%)
CC#Cc1cc(C)c(C2C(=O)CC3(CCN(C(=O)c4cnccc4C)CC3)CC2=O)c(C)c1 [Compound A115] | 3 (3=40-59%) | 5 (5=80-100%) | 5 (5=80-100%) | 5 (5=80-100%) | 5 (5=80-100%) | 5 (5=80-100%) | 5 (5=80-100%) | 5 (5=80-100%)
CC#Cc1cc(C)c(C2C(=O)CC3(CCN(C(=O)c4cnco4)CC3)CC2=O)c(C)c1 [Compound A116] | 5 (5=80-100%) | 5 (5=80-100%) | 5 (5=80-100%) | 5 (5=80-100%) | 5 (5=80-100%) | 5 (5=80-100%) | 5 (5=80-100%) | 5 (5=80-100%)
CC#Cc1cc(C)c(C2C(=O)CC3(CCN(C(=O)c4cn(C)cn4)CC3)CC2=O)c(C)c1 [Compound A117] | 2 (2=20-39%) | 5 (5=80-100%) | 4 (4=60-79%) | 5 (5=80-100%) | 5 (5=80-100%) | 5 (5=80-100%) | 5 (5=80-100%) | 5 (5=80-100%)
CC#Cc1cc(C)c(C2C(=O)CC3(CCN(C(=O)c4cncs4)CC3)CC2=O)c(C)c1 [Compound A118] | 5 (5=80-100%) | 5 (5=80-100%) | 5 (5=80-100%) | 5 (5=80-100%) | 5 (5=80-100%) | 5 (5=80-100%) | 5 (5=80-100%) | 5 (5=80-100%)
CC#Cc1cc(C)c(C2C(=O)CC3(CCN(C(=O)c4nnc(C)o4)CC3)CC2=O)c(C)c1 [Compound A119] | 5 (5=80-100%) | 5 (5=80-100%) | 5 (5=80-100%) | 5 (5=80-100%) | 5 (5=80-100%) | 5 (5=80-100%) | 5 (5=80-100%) | 5 (5=80-100%)
CC#Cc1cc(C)c(C2C(=O)CC3(CCN(C(=O)c4cc(OC)ccn4)CC3)CC2=O)c(C)c1 [Compound A120] | 4 (4=60-79%) | 5 (5=80-100%) | 5 (5=80-100%) | 5 (5=80-100%) | 5 (5=80-100%) | 5 (5=80-100%) | 5 (5=80-100%) | 5 (5=80-100%)
